Test results reported in publication PMC9250534, “Synthesis and direct assay of large macrocycle diversities by combinatorial late-stage modification at picomole scale” (Nature Communications, 2022).
Where “and” joins values, the source holds several entries; their conditions need not be identical. Identical values can stand only once. Like-named read-outs stand apart in the source and are kept apart here.

Experiments:
[1] = target: T1, MDM2 (Homo sapiens, UniProt Q00987); assay: MDM2 binding (FP53 displacement) by HPLC fractions of resynthesized hit reactions
T1 sequence (Q00987 whole entry): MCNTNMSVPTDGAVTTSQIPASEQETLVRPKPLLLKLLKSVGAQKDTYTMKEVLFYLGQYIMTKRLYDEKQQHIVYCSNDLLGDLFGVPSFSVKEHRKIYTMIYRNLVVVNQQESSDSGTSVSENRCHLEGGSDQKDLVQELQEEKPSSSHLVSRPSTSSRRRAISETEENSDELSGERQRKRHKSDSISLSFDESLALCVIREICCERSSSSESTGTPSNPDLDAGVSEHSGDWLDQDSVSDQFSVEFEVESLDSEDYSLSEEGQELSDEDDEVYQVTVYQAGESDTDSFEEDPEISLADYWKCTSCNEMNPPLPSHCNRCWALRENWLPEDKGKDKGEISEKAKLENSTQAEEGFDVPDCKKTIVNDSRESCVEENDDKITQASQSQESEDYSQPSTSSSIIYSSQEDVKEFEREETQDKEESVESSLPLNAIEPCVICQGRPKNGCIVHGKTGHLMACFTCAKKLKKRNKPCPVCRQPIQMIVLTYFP
Method: For hits from the MDM2 screen, reactions were performed in the same way but at a 50 nmol scale, and purified with the same method but a 10–80% gradient of solvent B and over 22 min. Fractions were lyophilized and dissolved in 40 μL of DMSO, 160 μL of water was added, and 5 μL of each fraction was transferred to a 384-well plate (Nunc, 264705), and 15 μL of premixed MDM2/FP53 peptide were added (final concentrations: 1.2 μM MDM2, 50 nM FP53, 5% DMSO).

[2] = target: T1, MDM2; assay: IC50 of purified MDM2-binding macrocycles, fluorescence polarization competition with FP53; conditions: for IC50: HPLC-purified macrocycle, FP displacement of fluorescent reporter peptide; for anisotropy: replicates 1-3
Method: Volumes of 5 μL of purified macrocycles (20 mM in DMSO) were serial diluted two-fold in 100% DMSO in a low dead-volume ECHO source plate. Using acoustic droplet transfer, 150 nL of each dilution was transferred to a 384 well low volume polystyrene plate (Nunc, 264705). […] Fluorescence anisotropy was measured as described above. The percentage of bound inhibitor was calculated using the following equation4 %boundinhibitor=N−X/N−P×100 where N is the average anisotropy of the DMSO controls, X is the anisotropy value obtained for each well, and P is the average anisotropy of the unbound probe. The IC50s were determined by plotting the percent of bound inhibitor against the logarithm of the corresponding macrocycle concentration, and the curves were fitted in GraphPad Prism 6 as described above.

[3] = target: T1, MDM2; assay: MDM2 binding screen of Libraries 3 and 4: displacement of fluorescent probe F-M8 at 750 nM macrocycle; conditions: 750 nM macrocycle; crude reaction; probe F-M8
How it was run: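 Competition with nutlin-3a was run using the fluorescein conjugate. Library members came from scaffolds reacted 6 h at room temperature with carboxylic acids (20 equiv.), HBTU and DABCO in DMSO. Quenching was overnight in Tris-Cl pH 7.4 buffer with 0.01% Tween20.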

[4] = target: T1, MDM2; assay: Competition binding of M10 and nutlin-3a (F-M10 or FP53 probe displacement from MDM2, FP); conditions: for F-M10 displacement (values are anisotropy): F-M10 macrocycle probe; for F-M10 displacement (values are anisotropy) / FP53 displacement (values are anisotropy): duplicates -1/-2; for FP53 displacement (values are anisotropy): FP53 linear peptide probe
Method: With the fluorescein conjugate, we also performed a competition experiment with nutlin-3a that binds to a defined hydrophobic pocket of MDM2[34] and is a precursor of nutlin-based clinical candidates.
Supplementary Figure 13. Studying the binding site of M10 by competition binding
by fluorescence polarization. The displacement was measured in two independent experiments
The displacement was measured in two

Molecule: O=C(NC[C@@H]1NC(=O)[C@H]2CCCN(C2)C(=O)CCSSCCNC(=O)[C@H](Cc2c[nH]c3ccccc23)NC1=O)c1ccc(Cl)cc1 [M7]
- Fraction bound (fraction fluorescent probe displaced) ([1]; HPLC Fraction 1 of acylation reaction): 0.06
- Fraction bound (fraction fluorescent probe displaced) ([1]; HPLC Fraction 2 of acylation reaction): 0.33
- Fraction bound (fraction fluorescent probe displaced) ([1]; HPLC Fraction 3 of acylation reaction): 0.08
- Fraction bound (fraction fluorescent probe displaced) ([1]; HPLC Fraction 4 of acylation reaction): -0.000869
- Fraction bound (fraction fluorescent probe displaced) ([1]; HPLC Fraction 5 of acylation reaction): -0.0216
- Fraction bound (fraction fluorescent probe displaced) ([1]; HPLC Fraction 6 of acylation reaction): 0.02
- Fraction bound (fraction fluorescent probe displaced) ([1]; HPLC Fraction 7 of acylation reaction): 0.02
- Fraction bound (fraction fluorescent probe displaced) ([1]; HPLC Fraction 8 of acylation reaction): 0.02
- Fraction bound (fraction fluorescent probe displaced) ([1]; HPLC Fraction 9 of acylation reaction): 0.02
- Fraction bound (fraction fluorescent probe displaced) ([1]; HPLC Fraction 10 of acylation reaction): 0.08
- Fraction bound (fraction fluorescent probe displaced) ([1]; HPLC Fraction 11 of acylation reaction): -0.000869
- Fraction bound (fraction fluorescent probe displaced) ([1]; HPLC Fraction 12 of acylation reaction): -0.06
- Fraction bound (fraction fluorescent probe displaced) ([1]; HPLC Fraction 13 of acylation reaction): -0.0422
- Fraction bound (fraction fluorescent probe displaced) ([1]; HPLC Fraction 14 of acylation reaction): 0.29
- Fraction bound (fraction fluorescent probe displaced) ([1]; HPLC Fraction 15 of acylation reaction): -0.0216
- Fraction bound (fraction fluorescent probe displaced) ([1]; HPLC Fraction 16 of acylation reaction): -0.10
- Fraction bound (fraction fluorescent probe displaced) ([1]; HPLC Fraction 17 of acylation reaction): -0.10
- Fraction bound (fraction fluorescent probe displaced) ([1]; HPLC Fraction 18 of acylation reaction): -0.15
- Fraction bound (fraction fluorescent probe displaced) ([1]; HPLC Fraction 19 of acylation reaction): -0.25
- Fraction bound (fraction fluorescent probe displaced) ([1]; HPLC Fraction 20 of acylation reaction): -0.21
- IC50 ([2]; average of 3 replicates, read-out: IC50 Average): 3.7 µM
- IC50 ([2]; replicate 1, read-out: IC50 Replicate 1): 3.8 µM
- IC50 ([2]; replicate 2, read-out: IC50 Replicate 2): 2 µM
- IC50 ([2]; replicate 3, read-out: IC50 Replicate 3): 5.3 µM
- displacement of fluorescent peptide probe from MDM2 ([2]; HPLC-purified macrocycles, FP competition): efficiently displaced
- anisotropy ([2]; Log[Macrocycle] M -4.0): 39 and 34 and 33
- anisotropy ([2]; Log[Macrocycle] M -4.3): 47 and 37 and 40
- anisotropy ([2]; Log[Macrocycle] M -4.6): 50 and 42 and 45
- anisotropy ([2]; Log[Macrocycle] M -4.9): 54 and 48 and 49
- anisotropy ([2]; Log[Macrocycle] M -5.2): 60 and 47 and 53
- anisotropy ([2]; Log[Macrocycle] M -5.5): 68 and 53 and 61
- anisotropy ([2]; Log[Macrocycle] M -5.8): 73 and 55 and 63
- anisotropy ([2]; Log[Macrocycle] M -6.1): 81 and 61 and 69
- anisotropy ([2]; Log[Macrocycle] M -6.4): 87 and 68 and 75
- anisotropy ([2]; Log[Macrocycle] M -6.7): 89 and 72 and 77
- anisotropy ([2]; Log[Macrocycle] M -7.0): 92 and 75 and 82
- anisotropy ([2]; Log[Macrocycle] M -7.3): 92 and 72 and 85
- anisotropy ([2]; Log[Macrocycle] M -7.6): 97 and 81 and 87
- anisotropy ([2]; Log[Macrocycle] M -7.9): 94 and 83 and 85
- anisotropy ([2]; Log[Macrocycle] M -8.2): 94 and 79 and 89
- anisotropy ([2]; Log[Macrocycle] M -8.5): 96 and 78 and 86

Molecule: O=C(/C=C/c1ccc2c(c1)OCO2)NC[C@@H]1NC(=O)[C@H]2CCCN(C2)C(=O)CCSSCCNC(=O)[C@H](Cc2c[nH]c3ccccc23)NC1=O [M10]
- displacement of fluorescent probe from MDM2 [3]: 84%
- F-M10 displacement (values are anisotropy) ([4]; Log[Inhibitor] M -4.0): 23 and 19
- F-M10 displacement (values are anisotropy) ([4]; Log[Inhibitor] M -4.3): 19 and 11
- F-M10 displacement (values are anisotropy) ([4]; Log[Inhibitor] M -4.6): 18 and 15
- F-M10 displacement (values are anisotropy) ([4]; Log[Inhibitor] M -4.9): 18 and 10
- F-M10 displacement (values are anisotropy) ([4]; Log[Inhibitor] M -5.2): 14 and 12
- F-M10 displacement (values are anisotropy) ([4]; Log[Inhibitor] M -5.5): 15 and 12
- F-M10 displacement (values are anisotropy) ([4]; Log[Inhibitor] M -5.8): 18 and 9
- F-M10 displacement (values are anisotropy) ([4]; Log[Inhibitor] M -6.1): 17 and 10
- F-M10 displacement (values are anisotropy) ([4]; Log[Inhibitor] M -6.4): 20 and 15
- F-M10 displacement (values are anisotropy) ([4]; Log[Inhibitor] M -6.7): 24 and 19
- F-M10 displacement (values are anisotropy) ([4]; Log[Inhibitor] M -7.0): 30 and 21
- F-M10 displacement (values are anisotropy) ([4]; Log[Inhibitor] M -7.3): 40 and 26
- F-M10 displacement (values are anisotropy) ([4]; Log[Inhibitor] M -7.6): 46 and 32
- F-M10 displacement (values are anisotropy) ([4]; Log[Inhibitor] M -7.9): 52 and 42
- F-M10 displacement (values are anisotropy) ([4]; Log[Inhibitor] M -8.2): 57 and 39
- F-M10 displacement (values are anisotropy) ([4]; Log[Inhibitor] M -8.5): 57 and 42
- FP53 displacement (values are anisotropy) ([4]; Log[Inhibitor] M -4.0): 35 and 39
- FP53 displacement (values are anisotropy) ([4]; Log[Inhibitor] M -4.3): 34 and 40
- FP53 displacement (values are anisotropy) ([4]; Log[Inhibitor] M -4.6): 35 and 36
- FP53 displacement (values are anisotropy) ([4]; Log[Inhibitor] M -4.9): 31 and 36
- FP53 displacement (values are anisotropy) ([4]; Log[Inhibitor] M -5.2): 32 and 39
- FP53 displacement (values are anisotropy) ([4]; Log[Inhibitor] M -5.5): 31 and 40
- FP53 displacement (values are anisotropy) ([4]; Log[Inhibitor] M -5.8): 30 and 37
- FP53 displacement (values are anisotropy) ([4]; Log[Inhibitor] M -6.1): 32 and 36
- FP53 displacement (values are anisotropy) ([4]; Log[Inhibitor] M -6.4): 31 and 40
- FP53 displacement (values are anisotropy) ([4]; Log[Inhibitor] M -6.7): 42 and 51
- FP53 displacement (values are anisotropy) ([4]; Log[Inhibitor] M -7.0): 51 and 55
- FP53 displacement (values are anisotropy) ([4]; Log[Inhibitor] M -7.3): 54 and 63
- FP53 displacement (values are anisotropy) ([4]; Log[Inhibitor] M -7.6): 60 and 67
- FP53 displacement (values are anisotropy) ([4]; Log[Inhibitor] M -7.9): 60 and 65
- FP53 displacement (values are anisotropy) ([4]; Log[Inhibitor] M -8.2): 66 and 67
- FP53 displacement (values are anisotropy) ([4]; Log[Inhibitor] M -8.5): 63 and 67

Molecule: Nutlin
- F-M10 displacement (values are anisotropy) ([4]; Log[Inhibitor] M -4.0): 71 and 53
- F-M10 displacement (values are anisotropy) ([4]; Log[Inhibitor] M -4.3): 66 and 52
- F-M10 displacement (values are anisotropy) ([4]; Log[Inhibitor] M -4.6): 66 and 55
- F-M10 displacement (values are anisotropy) ([4]; Log[Inhibitor] M -4.9): 62 and 56
- F-M10 displacement (values are anisotropy) ([4]; Log[Inhibitor] M -5.2): 69 and 55
- F-M10 displacement (values are anisotropy) ([4]; Log[Inhibitor] M -5.5): 63 and 51
- F-M10 displacement (values are anisotropy) ([4]; Log[Inhibitor] M -5.8): 63 and 55
- F-M10 displacement (values are anisotropy) ([4]; Log[Inhibitor] M -6.1): 68 and 53
- F-M10 displacement (values are anisotropy) ([4]; Log[Inhibitor] M -6.4): 65 and 54
- F-M10 displacement (values are anisotropy) ([4]; Log[Inhibitor] M -6.7): 64 and 54
- F-M10 displacement (values are anisotropy) ([4]; Log[Inhibitor] M -7.0): 64 and 51
- F-M10 displacement (values are anisotropy) ([4]; Log[Inhibitor] M -7.3): 64 and 50
- F-M10 displacement (values are anisotropy) ([4]; Log[Inhibitor] M -7.6): 67 and 53
- F-M10 displacement (values are anisotropy) ([4]; Log[Inhibitor] M -7.9): 61 and 50
- F-M10 displacement (values are anisotropy) ([4]; Log[Inhibitor] M -8.2): 66 and 47
- F-M10 displacement (values are anisotropy) ([4]; Log[Inhibitor] M -8.5): 66 and 47
- FP53 displacement (values are anisotropy) ([4]; Log[Inhibitor] M -4.0): 13 and 15
- FP53 displacement (values are anisotropy) ([4]; Log[Inhibitor] M -4.3): 21 and 16
- FP53 displacement (values are anisotropy) ([4]; Log[Inhibitor] M -4.6): 13 and 14
- FP53 displacement (values are anisotropy) ([4]; Log[Inhibitor] M -4.9): 14 and 13
- FP53 displacement (values are anisotropy) ([4]; Log[Inhibitor] M -5.2): 15 and 11
- FP53 displacement (values are anisotropy) ([4]; Log[Inhibitor] M -5.5): 15 and 18
- FP53 displacement (values are anisotropy) ([4]; Log[Inhibitor] M -5.8): 15 and 14
- FP53 displacement (values are anisotropy) ([4]; Log[Inhibitor] M -6.1): 19 and 23
- FP53 displacement (values are anisotropy) ([4]; Log[Inhibitor] M -6.4): 30 and 27
- FP53 displacement (values are anisotropy) ([4]; Log[Inhibitor] M -6.7): 43 and 49
- FP53 displacement (values are anisotropy) ([4]; Log[Inhibitor] M -7.0): 56 and 61
- FP53 displacement (values are anisotropy) ([4]; Log[Inhibitor] M -7.3): 64 and 66
- FP53 displacement (values are anisotropy) ([4]; Log[Inhibitor] M -7.6): 64 and 68
- FP53 displacement (values are anisotropy) ([4]; Log[Inhibitor] M -7.9): 66 and 67
- FP53 displacement (values are anisotropy) ([4]; Log[Inhibitor] M -8.2): 65
- FP53 displacement (values are anisotropy) ([4]; Log[Inhibitor] M -8.5): 69 and 66

Molecule: nutlin-3a [reference compound]
- competition with fluorescein conjugate of M10 for MDM2 binding ([4]; FP competition experiment): did not compete
